Here are results for 2 compounds from US20150010639A1, “PHAR[…] DIETARY COMPOSITIONS BASED ON SHORT-CHAIN FATTY ACIDS AND COMPLEX SUGARS, FOR INTESTINAL DISORDERS” (COSMO TECHNOLOGIES LTD., priority 2004, published 2015).

For the assay, the system named is inflammatory bowel disease (IBD), symptom of diarrhoea. Description: clinical study in patients with inflammatory bowel disease (IBD): symptom of diarrhoea on subjective 5-point scale. Type of assay: in vivo, adult patients. To be noted: n = 6 IBD patients; for Diarrhoea % improvement relative to the base time / Diarrhoea mean intensity, final: after 4 weeks of daily oral treatment, 250 mg of each active; for Diarrhoea mean intensity, final / Diarrhoea mean intensity, base: scale 0 to 4; for Diarrhoea mean intensity, base: base time before treatment. As for the experimental part:
The clinical study described below was performed with the tablets thus produced.
The study was performed on 18 adult patients of both sexes, divided into three homogeneous groups each of 6 patients, who were suffering from inflammatory bowel disease (IBD) and were treated as follows:
Group 1: 250 mg butyric acid
Group 3: 250 mg butyric acid+250 mg inulin
The active ingredients were transported in tablets which were indistinguishable in shape, size, weight and colour.
The treatments were administered orally daily before the main meal for a period of 4 weeks.
Before the start of the treatment (base time) and then upon completion of the 4 weeks of treatment, each patient was assessed for the presence of the symptom of diarrhoea.
This symptom was quantified, according to its intensity, on a subjective 5-point scale graduated from 0 (absence of indisposition) to 4 (indisposition of considerable gravity). The mean intensity at the base time and at the end of the period of treatment and the percentage of improvement relative to the base time were calculated for this symptom.

Turning to inulin, the “Diarrhoea % improvement relative to the base time” value is on record as 27%; the “Diarrhoea mean intensity, final” value is 2.1; the “Diarrhoea mean intensity, base” value is listed as 2.9.

On to `CCCC(=O)O` [butyric acid], for which the “Diarrhoea % improvement relative to the base time” value was 44%; the “Diarrhoea mean intensity, final” value was found to be 1.5; the “Diarrhoea mean intensity, base” value is 2.7.
